Data reported in PMC10041525, “New Dual Inhibitors of Bacterial Topoisomerases with Broad-Spectrum Antibacterial Activity and In Vivo Efficacy against Vancomycin-Intermediate Staphylococcus aureus” (Journal of Medicinal Chemistry, 2023).
In brackets after ≈: the same amount, converted by molar mass. Where two headings read alike, the source gives them in different places. Each block holds one molecule with its values, some of them ahead of it.

Assays:
[1] = test system: Chinese hamster ovary K1 cells; assay: in vitro micronucleus test; details: with S9, 150 µM
[2] = test system: Chinese hamster ovary K1 cells; details: 150 µM
[3] = test system: N. gonorrhoeae ATCC 49226; design: method as in earlier work; details: QC range for N. gonorrhoeae ATCC 49226, ref CLSI; cited from earlier work
[4] = test system: N. gonorrhoeae ATCC 49226; assay: IHMA QC MIC; format: cell-based; details: Neisseria gonorrhoeae, ATCC49226; QC strain N. gonorrhoeae ATCC 49226, test date 2021-11-18; read-out: MIC
Description: Supplement jm2c01905_si_004.xlsx, sheet "QC" | column: MIC [µg/mL]

[5] = test system: H. influenzae ATCC 49247; design: method as in earlier work; details: QC range for H. influenzae ATCC 49247, ref CLSI; cited from earlier work
[6] = test system: E. coli ATCC 25922; design: method as in earlier work; details: QC range for E. coli ATCC 25922, ref CLSI; cited from earlier work
[7] = test system: Neisseria gonorrhoeae (n = 12); assay: MIC broth microdilution at IHMA Europe; format: cell-based; details: for MIC: Neisseria gonorrhoeae, read-out: MIC
[8] = test system: S. pneumoniae ATCC 49619; design: method as in earlier work; details: QC range for S. pneumoniae ATCC 49619, ref CLSI; cited from earlier work

SMILES: c1ccc2c(c1)cc1ccc3cccc4ccc2c1c34 [Benzo[a]pyrene]
No. binucleate cells [1]: 1702
% Cytostasis [2]: 8.3%

MIC [4]: 0.06 µg/mL (≈ 0.14 µM)
Cumulative % at MIC ([7]; MIC 0.015 µg/mL): 8.3%
No. of isolates at MIC ([7]; MIC 0.015 µg/mL): 1
Cumulative % at MIC ([7]; MIC 0.03 µg/mL): 16.7%
No. of isolates at MIC ([7]; MIC 0.03 µg/mL): 1
Cumulative % at MIC ([7]; MIC 0.06 µg/mL): 41.7%
No. of isolates at MIC ([7]; MIC 0.06 µg/mL): 3
Cumulative % at MIC ([7]; MIC 0.5 µg/mL): 66.7%
No. of isolates at MIC ([7]; MIC 0.5 µg/mL): 1
Cumulative % at MIC ([7]; MIC 1 µg/mL): 83.3%
No. of isolates at MIC ([7]; MIC 1 µg/mL): 2
Cumulative % at MIC ([7]; MIC 2 µg/mL): 100.0%
No. of isolates at MIC ([7]; MIC 2 µg/mL): 2
Cumulative % at MIC ([7]; MIC […]): 58.3%
No. of isolates at MIC ([7]; MIC […]): 2
MIC ([7]; isolate IHMA 1123853): 1 µg/mL (≈ 2.34 µM)
MIC ([7]; isolate IHMA 1130935): 0.03 µg/mL (≈ 0.0702 µM)
MIC ([7]; isolate IHMA 1130989): 0.015 µg/mL (≈ 0.0351 µM)
MIC ([7]; isolate IHMA 1130991): 1 µg/mL (≈ 2.34 µM)
MIC ([7]; isolate IHMA 1137292): 0.5 µg/mL (≈ 1.17 µM)
MIC ([7]; isolate IHMA 1145734): 0.25 µg/mL (≈ 0.585 µM)
MIC ([7]; isolate IHMA 1145735): 0.06 µg/mL (≈ 0.14 µM)
MIC ([7]; isolate IHMA 1165897): 0.06 µg/mL (≈ 0.14 µM)
MIC ([7]; isolate IHMA 1194748): 0.06 µg/mL (≈ 0.14 µM)
MIC ([7]; isolate IHMA 1194750): 0.25 µg/mL (≈ 0.585 µM)
MIC ([7]; isolate IHMA 1546199): 2 µg/mL (≈ 4.68 µM)
MIC ([7]; isolate IHMA 1546215): 2 µg/mL (≈ 4.68 µM)
SMILES: COCC1=C(C(=O)O)N2C(=O)[C@@H](NC(=O)/C(=N\OC)c3csc(N)n3)[C@H]2SC1 [Cefpodoxime, cefpodoxime]
MIC, CLSI Range [3]: 0,03 - 0,12 µg/mL
MIC, CLSI Range [5]: 0,25 - 1 µg/mL
MIC, CLSI Range [6]: 0,25 - 1 µg/mL
MIC, CLSI Range [8]: 0,03 - 0,12 µg/mL
